Patent US11066398B2, “Small molecule c-Myc inhibitors” (THE SCRIPPS RESEARCH INSTITUTE, priority 2013, dated 2021)
Converted amounts (≈) assume the structure as drawn. “Also recorded” adds a separate entry of the source. Read-outs that look alike come from different tables or passages of the source.

What was measured:
ATG-Myc = ATG-Myc (Homo sapiens, UniProt P01106); assay: Myc-induced oncogenic transformation (focus assay) in chicken embryo fibroblasts; type: cell-based; conditions: for Inhibition of ATG-Myc focus formation: CEF focus assay, concentration of 10 μM; for Inhibition of Myc oncogenic activity in CEF transformation assay: ATG-Myc; for EOT (efficiency of transformation): focus counts in the presence of inhibitor over focus counts of control plates, CEF infected with RCAS ATG-Myc
Chain of ATG-Myc (P01106 whole entry): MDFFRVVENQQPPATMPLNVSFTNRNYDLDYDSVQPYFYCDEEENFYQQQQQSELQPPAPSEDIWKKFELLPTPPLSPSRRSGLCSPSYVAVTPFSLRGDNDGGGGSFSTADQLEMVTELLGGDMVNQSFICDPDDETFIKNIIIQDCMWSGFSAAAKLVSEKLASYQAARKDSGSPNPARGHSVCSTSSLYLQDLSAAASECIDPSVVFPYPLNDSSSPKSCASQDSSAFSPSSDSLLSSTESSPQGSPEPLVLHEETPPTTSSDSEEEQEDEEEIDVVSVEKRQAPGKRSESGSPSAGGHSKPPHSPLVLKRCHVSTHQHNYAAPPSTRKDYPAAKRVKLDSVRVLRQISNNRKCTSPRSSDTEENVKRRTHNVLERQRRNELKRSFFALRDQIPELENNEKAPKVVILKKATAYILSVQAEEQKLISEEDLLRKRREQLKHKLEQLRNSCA

v-src, and v-jun = conditions: CEF specificity assay
Procedure: (§5) Assay for oncogenic transformation in cell culture. […] CEF were infected with a series of ten-fold dilutions of the indicated virus. Compounds were added to the nutrient agar overlay. Additional compound-containing overlay was added every 3 days until experimental end point.
The specificity of the inhibitory activities of the analog compounds was also examined.

SW-480 = conditions: SW-480, 25 or 50 μM, 24 hrs
[1] = system: normal quail embryo fibroblasts (QEF); conditions: 25 or 50 μM, 24 hrs
[2] = system: cells transformed by v-myc (Q8, QEF/MC29)
NCI-H460 = conditions: NCI-H460, 72 hrs, 2.5% FBS
SUM-159PT = conditions: 120 hrs, 2.5% FBS
N-Myc = N-Myc (Homo sapiens, UniProt P04198); conditions: CEF, dose response
Chain of N-Myc (P04198 whole entry, species assumed): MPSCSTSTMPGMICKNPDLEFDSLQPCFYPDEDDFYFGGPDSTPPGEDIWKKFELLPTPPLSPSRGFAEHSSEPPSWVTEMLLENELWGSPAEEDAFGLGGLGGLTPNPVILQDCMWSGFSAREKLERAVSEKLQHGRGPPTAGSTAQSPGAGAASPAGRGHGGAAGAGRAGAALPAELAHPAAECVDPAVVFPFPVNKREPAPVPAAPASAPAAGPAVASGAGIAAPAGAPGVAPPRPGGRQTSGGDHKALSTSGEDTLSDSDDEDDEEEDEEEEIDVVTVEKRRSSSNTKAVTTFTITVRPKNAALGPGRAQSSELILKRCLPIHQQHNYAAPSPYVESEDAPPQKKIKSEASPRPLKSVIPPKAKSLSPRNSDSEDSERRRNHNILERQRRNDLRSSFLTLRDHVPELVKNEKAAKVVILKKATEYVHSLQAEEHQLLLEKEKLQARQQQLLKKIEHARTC
Procedure: (§6) Data from a representative experiment conducted with the cells derived from a single chicken embryo.
(§7) The assay of oncogene-induced cellular transformation in CEF was also used to determine selectivity of KJ-Pyr-9 for Myc.
as §5

Solubility in water = type: physicochemical
MYC^332-439 with MAX = MYC^332-439 with MAX (Homo sapiens, UniProt P01106); conditions: HEK293 cells, 20 μM, compared to PKA RII:RII control biosensor
Chain of MYC^332-439 with MAX (P01106 347-454): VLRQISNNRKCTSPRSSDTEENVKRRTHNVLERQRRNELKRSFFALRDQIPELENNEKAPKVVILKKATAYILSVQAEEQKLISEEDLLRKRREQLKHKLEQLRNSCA
Procedure: (§8) We used an efficient and sensitive PCA biosensor which is based on the PPI involving the full length MAX protein and the C-terminal MAX-interaction-domain in MYC (MYC^332-439).
(§9) HEK293 cells were grown in Dulbecco's Modified Eagle's Medium (DMEM) supplemented with 10% fetal bovine serum (FBS). The indicated Rluc-PCA expression constructs were transiently overexpressed in a 24-well plate format. […] Following treatment, the growth medium was exchanged and cells were resuspended in phosphate buffered saline (PBS). Cell suspensions were transferred to white walled 96-well plates and were subjected to bioluminescence analysis using the LMax II 384 luminometer (Molecular Devices). Rluc bioluminescence signals were integrated for 10 sec following addition of the Rluc substrate benzyl-coelenterazine to intact cells (5 μM; Nanolight).

[3] = system: NDRG1 (N-myc downregulated gene 1); assay: NDRG1 expression by Western blot in MDA-MB-231 and NCI-H460 cells; type: cell-based, human; conditions: 20 μM, 24 hrs
Procedure: (§1) NCI-H460 cells were grown in RPMI medium, and MDA-MB-231 cells were grown in DMEM medium; both media contained 10% FBS. KJ-Pyr-9 and 10058-F4 were added at a concentration of 20 μM and the cells were treated for 24 hrs before Western blot analysis.
(§2) Interference with Myc transcriptional activity of Myc affects the transcription of a large number of target genes and can function as activator or repressor. […] NDRG1 is a direct transcriptional target of Myc that acts as a repressor of this gene. For comparison, we used the previously identified inhibitor of MYC-MAX dimerization that binds to the disordered monomer and prevents Myc from adopting a conformation needed for the interaction with MAX (Wang et al., Mol. Cancer Ther. 6:2399-2408, 2007; and Huang et al., Exp. Hematol. 34:1480-1489, 2006). Both KJ-Pyr-9 and 10058-F4 cause an increase of NDRG1 expression (FIG. 4).

[4] = system: QEF transformed by methylcholanthrene (QT6); conditions: 25 or 50 μM, 24 hrs
NDRG1 = conditions: 10 mg/kg daily i.p., Western blot of frozen tumor samples
Procedure: In order to determine drug activity in tumor cells, protein lysates were prepared from frozen tumor samples and analyzed by Western blot.
Xenograft experiments. […] Cells were suspended in high concentration Matrigel (BD Biosciences) prior to injection. Xenograft tumors were allowed to grow until the average volume of the tumors reached 100 mm^3 as measured by external calipers. At this point, the mice were divided into two groups. […] Tumor volume and mouse weight were measured daily. Vehicle used in all cases was 10:10:80 DMSO:Tween-80:5% dextrose in water. The mice were treated for a period of 31 days. At the end of the experiment, the mice were euthanized and tumors excised. Tumors were weighed. Samples of each tumor were fixed in formalin for histology and frozen for Western blotting. All vertebrate experiments were conducted with the approval of the TSRI IACUC.

HL-60 = conditions: HL-60, 25 or 50 μM, 24 hrs
MAX homodimerization = MAX homodimerization (Homo sapiens, UniProt P61244); conditions: HEK293 cells, 20 μM
Chain of MAX homodimerization (P61244 whole entry): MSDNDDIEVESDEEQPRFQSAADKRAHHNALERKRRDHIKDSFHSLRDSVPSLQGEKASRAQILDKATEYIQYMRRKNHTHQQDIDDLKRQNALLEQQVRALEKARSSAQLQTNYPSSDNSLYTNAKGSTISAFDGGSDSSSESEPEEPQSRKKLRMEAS
Procedure: as §8, §9

[5] = system: xenograft of MDA-MB-231 cells; assay: MDA-MB-231 xenograft in nude mice; type: in vivo, mouse; conditions: 10 mg/kg daily i.p.
Procedure: When tumors reached a volume of 100 mm^3 half of the mice were given daily i.p. injections of 10 mg/kg KJ-PYR-9 and the other half received vehicle only. Tumor growth was followed for 31 days. (A) Tumor volumes of treated and untreated animals. (B) Tumor weights of treated and untreated animals. (C) Time course of tumor volumes.
To test the in vivo effectiveness of KJ-Pyr-9, nude mice received a xenograft of MDA-MB-231 cells suspended in Matrigel and injected subcutaneously into the left and right flanks. When the tumors had reached an average volume of 100 mm^3, mice were treated daily with 10 mg/kg KJ-Pyr-9 or vehicle control by intraperitoneal injection for 31 days. […] At the conclusion of the experiment the tumors were extracted and weighed. […] Treatment with KJ-Pyr-9 had no effect on the body weight of the animals.
Xenograft experiments. […] Tumor volume and mouse weight were measured daily. […] Tumors were weighed.
Statistical methods. Tumor volumes were calculated using (length)×(width)^2. Tumor volumes were evaluated using Efron's Bootstrap (ISBN:0412042312) procedures as implemented in the R statistics program (Wu and Houghton, J. Biopharma. Stat. 19:755-762, 2009). Mean volumes and 90% confidence intervals were determined using bootstrap resampling with 10^6 randomizations and graphed using the ggplot2 package (ISBN:0387981403). P-values were determined using the resampling permutation method with 10^6 randomizations.

MDA-MB-231 = conditions: MDA-MB-231, 216 hrs, 2.5% FBS
[6] = Pharmacokinetics and tolerability in mice; type: in vivo, mouse; conditions: for concentration at 4 h: ip, mice, 10 mg/kg intraperitoneally
Procedure: (§3) In vivo activity of KJ-Pyr-9: Previous Myc inhibitors have not been effective in animal model studies. These failures resulted from insufficient affinity toward Myc and poor pharmacokinetic properties.
(§4) Pharmacokinetics. Three mice were injected with 10 mg/kg KJ-Pyr-9 dissolved in 10:10:80 Tween-80:DMSO:5% Dextrose/water intraperitoneally. At 4 hours concentrations of KJ-Pyr-9 in the plasma and in the brain were 3.5 and 12.4 μM respectively. Rats were dosed with 1 mg/kg i.v.; elimination half lives in plasma were approximately 1.84 h (rats).

[7] = system: Burkitt's lymphoma cell lines (Akata, Ramos, Raji); conditions: 72 hours
Procedure: (A) Akata, (B) Ramos, (C) Raji. 10^3 cells were seeded per well on 96-well plates and were treated with the indicated concentrations of KJ-Pyr-9 for 72 hours. Cell proliferation was determined by resazurin fluorescence.

MYC = assay: Myc levels by Western blot in MDA-MB-231 and NCI-H460 cells; type: cell-based, human; conditions: 20 μM, 24 hrs
Procedure: as §1, §2

Pharmacokinetics in rats = type: in vivo, rat; conditions: 1 mg/kg i.v.
Procedure: as §3, §4

human fibroblasts (hFB) = conditions: 25 or 50 μM, 24 hrs
v-Src = v-Src (Rous sarcoma virus subgroup A, UniProt P00524); conditions: CEF, dose response
Chain of v-Src (P00524 whole entry): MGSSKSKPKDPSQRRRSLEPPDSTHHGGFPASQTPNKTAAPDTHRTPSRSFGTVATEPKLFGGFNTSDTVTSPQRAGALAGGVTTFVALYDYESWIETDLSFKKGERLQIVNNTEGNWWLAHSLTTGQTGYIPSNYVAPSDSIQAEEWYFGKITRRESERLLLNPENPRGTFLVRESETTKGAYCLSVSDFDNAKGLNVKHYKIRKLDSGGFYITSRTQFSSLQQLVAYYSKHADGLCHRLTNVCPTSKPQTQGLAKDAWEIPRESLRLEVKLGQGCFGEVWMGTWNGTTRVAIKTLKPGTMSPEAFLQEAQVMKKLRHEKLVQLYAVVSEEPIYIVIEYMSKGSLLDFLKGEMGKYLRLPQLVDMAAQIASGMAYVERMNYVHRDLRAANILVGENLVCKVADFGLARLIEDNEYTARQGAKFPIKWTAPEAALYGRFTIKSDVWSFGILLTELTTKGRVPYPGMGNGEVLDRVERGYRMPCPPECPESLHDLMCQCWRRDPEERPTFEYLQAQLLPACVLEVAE
Procedure: as §6, §7, §5

[8] = system: QEF oncogenically transformed by the v-jun oncogene (VJ); conditions: 25 or 50 μM, 24 hrs
v-Jun = v-Jun (Avian sarcoma virus, UniProt P05411); conditions: CEF, dose response
Chain of v-Jun (P05411 whole entry): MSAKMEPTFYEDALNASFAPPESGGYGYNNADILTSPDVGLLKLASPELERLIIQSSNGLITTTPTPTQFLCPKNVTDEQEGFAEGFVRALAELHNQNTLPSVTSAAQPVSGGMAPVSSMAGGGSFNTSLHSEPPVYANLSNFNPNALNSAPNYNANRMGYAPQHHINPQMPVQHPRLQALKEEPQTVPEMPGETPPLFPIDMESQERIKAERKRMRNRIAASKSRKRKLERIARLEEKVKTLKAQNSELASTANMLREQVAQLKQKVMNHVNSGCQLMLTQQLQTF
Procedure: as §6, §7, §5

MOLT-4 = conditions: MOLT-4, 25 or 50 μM, 24 hrs
K-562 = conditions: K-562, 25 or 50 μM, 24 hrs

COC(=O)c1cccc(-c2cc(-c3ccc(C(N)=O)cc3)cc(-c3ccco3)n2)c1 [CG-RS-70]
Cell growth in CEF focus assay (ATG-Myc): slight decrease in cell growth | Inhibition of ATG-Myc focus formation (ATG-Myc): no foci formation

NC(=O)c1ccc(-c2cc(-c3ccc([N+](=O)[O-])cc3)nc(-c3cccc(Br)n3)c2)cc1 [CG-RS-106]
Inhibition of ATG-Myc focus formation (ATG-Myc): no inhibition

N#Cc1ccc(-c2cc(-c3ccc(C(N)=O)cc3)cc(-c3ccco3)n2)cc1 [CG-RS-47]
Specificity for inhibiting Myc over v-src, 111047R and v-jun (v-src, and v-jun): some degrees of specificity | Inhibition of ATG-Myc focus formation (ATG-Myc): no foci formation

NC(=O)c1ccc(-c2cc(-c3ccc(OC(F)(F)F)cc3)nc(-c3ccco3)c2)cc1 [CG-RS-55]
Inhibition of ATG-Myc focus formation (ATG-Myc): some inhibiting activities

NC(=O)c1ccc(-c2cc(-c3ccc(C(F)(F)F)cc3)nc(-c3ccco3)c2)cc1 [CG-RS-54]
Inhibition of ATG-Myc focus formation (ATG-Myc): some inhibiting activities

NC(=O)c1ccc(-c2cc(-c3ccc([N+](=O)[O-])cc3)nc(-c3ccccn3)c2)cc1 [CG-RS-128]
Inhibition of ATG-Myc focus formation (ATG-Myc): no inhibition

CS(=O)(=O)c1ccc(-c2cc(-c3ccc(C(N)=O)cc3)cc(-c3ccco3)n2)cc1 [CG-RS-58]
Inhibition of ATG-Myc focus formation (ATG-Myc): no inhibition

NC(=O)c1ccc(-c2cc(-c3ccc([N+](=O)[O-])cc3)nc(-c3ccco3)c2)cc1 [CG-RS-44, 4-(2-(furan-2-yl)-6-(4-nitrophenyl)pyridin-4-yl)benzamide]
Cell proliferation (SW-480): not affected | Cell growth [1]: only slightly impaired in their growth | Cell growth [2]: significantly more affected | Cell proliferation (NCI-H460): inhibited | Cell proliferation (SUM-159PT): inhibited | Inhibition of oncogenic activity of N-Myc (N-Myc): strongly inhibited | solubility (Solubility in water): 12.5 µM (≈ 4.82 µg/mL) | Complex formation of MYC^332-439 with MAX (Rluc PCA) (MYC^332-439 with MAX): selectively reduced complex formation | NDRG1 expression [3]: increase | Cell growth [4]: only slightly impaired in their growth | Expression of NDRG1 in tumor lysates (NDRG1): significantly enhanced | Cell proliferation (HL-60): strongly inhibited | MAX homodimerization (Rluc PCA) (MAX homodimerization): interfered with MAX homodimerization, albeit to a lesser degree | Dose dependence of inhibition of ATG-Myc focus formation (ATG-Myc; 0-20 μM (0, 1.25, 2.5, 5, 10, and 20 μM)): dose-dependent inhibition | Comparison of IC50 values for ATG-Myc focus formation (ATG-Myc; CEF assay): better than all analogs tested | Inhibition of ATG-Myc focus formation (ATG-Myc): no foci formation | Inhibition of Myc oncogenic activity in CEF transformation assay (ATG-Myc; listed as KJ-Pyr-9): effective; also recorded: strongly inhibited | Body weight of the animals ([5]; 31 days): no effect | Tumor volume ([5]; by day 31): had not increased significantly | Tumor weight ([5]; end of experiment (31 days)): halt tumor growth | Onset of inhibition of tumor growth ([5]; nude mice): noted after eight days of treatment | Cell proliferation (MDA-MB-231): inhibited | Acute toxicity ([6]; dose of 10 mg/kg): no signs of acute toxicity | concentration at 4 h ([6]; mouse, brain, read-out: Concentration in the brain): 12.4 µM | Blood brain barrier penetration ([6]; mouse, in vivo): crossed the blood brain barrier | Brain versus blood concentration ([6]; mouse, in vivo): higher concentrations in brain tissue than in the blood | concentration at 4 h ([6]; mouse, plasma, read-out: Concentration in the plasma): 3.5 µM | Cell proliferation [7]: very sensitive | Effect on Myc levels (MYC): only a slight effect | Elimination half life in plasma (Pharmacokinetics in rats): approximately 1.84 h | Cell proliferation (human fibroblasts (hFB)): not affected | Inhibition of oncogenic transformation by v-Src (v-Src): unaffected | Cell growth [8]: only slightly impaired in their growth | Inhibition of oncogenic transformation by v-Jun (v-Jun): inhibited at significantly higher concentrations | Cell proliferation (MOLT-4): strongly inhibited | Cell proliferation (K-562): strongly inhibited

NC(=O)c1ccc(-c2cc(-c3ccc([N+](=O)[O-])cc3)nc(-c3ccco3)c2)o1 [CG-RS-50, 5-(2-(furan-2-yl)-6-(4-nitrophenyl)pyridin-4-yl)furan-2-carboxamide]
Inhibition of ATG-Myc focus formation (ATG-Myc): some inhibiting activities | Inhibition of Myc oncogenic activity in CEF transformation assay (ATG-Myc): effective

NC(=O)c1ccc(-c2cc(-c3ccc([N+](=O)[O-])cc3)nc(-c3ccc(Br)cn3)c2)cc1 [CG-RS-123]
Inhibition of ATG-Myc focus formation (ATG-Myc): no inhibition

NC(=O)c1ccc(-c2cc(-c3ccc([N+](=O)[O-])cc3)nc(-c3ccccc3Br)c2)cc1 [CG-RS-91]
Inhibition of ATG-Myc focus formation (ATG-Myc): no inhibition

NC(=O)c1ccc(-c2cc(-c3ccc(SC(F)(F)F)cc3)nc(-c3ccco3)c2)cc1 [CG-RS-61]
Inhibition of ATG-Myc focus formation (ATG-Myc): no inhibition

COC(=O)c1ccc(-c2cc(-c3ccc(C(N)=O)cc3)cc(-c3ccco3)n2)cc1 [CG-RS-64]
Inhibition of ATG-Myc focus formation (ATG-Myc): no inhibition

NC(=O)c1ccc(-c2cc(-c3ccncc3)nc(-c3ccc([N+](=O)[O-])cc3)c2)cc1 [CG-RS-129]
Specificity for inhibiting Myc over v-src, 111047R and v-jun (v-src, and v-jun): some degrees of specificity | Cell growth in CEF focus assay (ATG-Myc): slight decrease in cell growth | Inhibition of ATG-Myc focus formation (ATG-Myc): no foci formation

NC(=O)c1ccc(-c2ccc(-c3cc(-c4ccccc4)nc(-c4ccco4)c3)cc2)cc1 [KJ-Pyr-4, 4′-(2-(furan-2-yl)-6-phenylpyridin-4-yl)-[1,1′-biphenyl]-4-carboxamide]
EOT (efficiency of transformation) (ATG-Myc): 1.12

CCc1ccc(/C=C2/SC(=S)NC2=O)cc1 [Compound 10058-F4, reference compound]
NDRG1 expression [3]: increase | Effect on Myc levels (MYC): strong decrease

COc1ccc(-c2cc(-c3ccc(C(N)=O)o3)cc(-c3ccco3)n2)cc1 [KJ-Pyr-6, 5-(2-(furan-2-yl)-6-(4-methoxyphenyl)pyridin-4-yl)furan-2-carboxamide]
EOT (efficiency of transformation) (ATG-Myc): 0.79

NC(=O)c1ccc(-c2cc(-c3ccc(Br)cc3)nc(-c3ccc([N+](=O)[O-])cc3)c2)cc1 [CG-RS-90]
Inhibition of ATG-Myc focus formation (ATG-Myc): no inhibition
